The source of these data is US20250109120A1, “INDOLINE DERIVATIVES FOR TREATMENT AND/OR PREVENTION OF TUMOR OR CELL PROLIFERATIVE AND FIBROSIS DISEASES” (NATIONAL TAIWAN UNIVERSITY, priority 2023, published 2025).

One assay has as its target CDK8 (Homo sapiens (Human), UniProt P49336). Nature of the assay: LanthaScreen Eu Binding Assay, Thermo Fisher SelectScreen kinase service. The conditions noted are these: for inhibition at 10 µM: read-out: CDK8 Inhibition percentage at 10 μM; for IC50: read-out: Inhibition of CDK8 IC50. As for the experimental part:
Compounds were tested for kinase inhibitory activity using the Thermo Fisher SelectScreen service (www.thermofisher.com/selectscreen). For CDK8, the LanthaScreen Eu Binding Assay was used. Briefly, the assay employed utilizes a fluorescent tracer to a given kinase. This is used to detect the addition of an anti-tag antibody. When the tracer and antibody bind to the targeted kinase, the Forster resonance energy transfer is measured. When a kinase inhibitor is added to the assay, the tracer/kinase binding will be disrupted, producing low FRET detection and indicating kinase inhibitory activity. Evaluation of kinase activity of additional kinase targets utilized the LanthaScreen binding assay or the Z′-Lyte activity assay provided by Thermo Fisher SelectScreen service. The IC50 values were determined using sequential doses, and the inhibition curves were provided by Thermo Fisher Scientific.
The fragment-based drug design strategy in this study led to optimized CDK8 inhibitors with promising results. CDK8-inhibitory activities of the compounds (a-n) designed by this fragment-based drug design strategy were tested using the SelectScreen kinase service of ThermoFisher Scientific. The inhibitory effects of the 14 compounds and the referenced compound were tested at a concentration of 10 μM.
For orientation: TR-FRET usually uses a lanthanide donor and a delayed reading to cut background.

Assay [1] relates to A549 cells. Nature of the assay: TGF-β1-induced oxidative stress (MDA, Nox4). The assay is classed as cell-based, human. The following applies: compounds 2 μM, TGF-β1 10 ng/ml 24 h. As for the experimental part: A549 cells were incubated with compounds k, b, a (2 μM), senexin A (5 μM), or pirfenidone (1 mM) for 1 h, followed by treatment with 10 ng/ml TGF-β1 for a further 24 h. Malondialdehyde (MDA) (FIG. 10A) and Nox4 (FIG. 10B) levels were detected. ***p<0.001 compared to the control group; #p<0.05, ##p<0.01, and ###p<0.001 compared to the TGF-β1-treated group.
An end product of lipid peroxidation, malondialdehyde (MDA), was measured by spectrophotometry at a wavelength of 532 nm using malondialdehyde bis(dimethyl acetal) as the standard as per the assay protocol (Cell Biolabs, USA).

For assay [2], the system named is A549 cells. The assay can be described thus: TGF-β1-induced EMT protein expression, western blot. It is filed as cell-based, human. The following applies: test compounds 2 μM, senexin A 5 μM, pirfenidone 1 mM; TGF-β1 10 ng/mL. As for the experimental part:
FIGS. 4A-4B show the inhibition of epithelial-to-mesenchymal transition protein expressions by CDK8 inhibitors in human alveolar epithelial cells. […] Cell lysates were subjected to a Western blot analysis using the indicated antibodies. Results are shown as the mean t SEM from three independent experiments. *p<0.05, and ***p<0.001 compared to the control group; #p<0.05, ##p<0.01, and ###p<0.001 compared to the TGF-β1-treated group. […] Cell viabilities were determined by an MTT assay. Results are shown as the mean t SEM of three independent experiments.
(§1) Cells (106) were incubated for 10 min at 4° C. in lysis buffer (20 mM HEPES at pH 7.4, 2 mM EGTA, 50 mM β-glycerophosphate, 0.1% Triton X-100, 10% glycerol, 1 mM DTT, 1 μg/mL of leupeptin, 5 μg/mL of aprotinin, 1 mM phenylmethylsulfonyl fluoride, and 1 mM sodium orthovanadate), scraped off, incubated on ice for an additional 10 min, and centrifuged at 17,000 g for 30 min at 4° C. Protein samples (20 μg) were then electrophoresed on SDS-polyacrylamide gel electrophoresis (PAGE) gels and transferred to a nitrocellulose membrane, which was then blocked by incubation for 30 min at room temperature with 5% bovine serum albumin (BSA) in Tris-buffered saline with 0.1% Tween-20 (TBST). Immunoblotting was performed by overnight incubation at 4° C. with primary antibodies in TBST, followed by incubation for 1 h at room temperature with horseradish peroxidase (HRP)-conjugated secondary antibodies. Bound antibodies were measured using enhanced chemiluminescence (ECL) reagent (GE Healthcare, UK) and exposed to photographic film.
Background: A western blot detects proteins with antibodies after separation by electrophoresis.

Assay [3] deals with A549 cells. Nature of the assay: Wound-healing migration assay. It is filed as cell-based, human. The conditions noted are these: compounds 2 μM, senexin A 5 μM, pirfenidone 1 mM; TGF-β1 10 ng/mL; 24 or 48 h. The protocol:
A549 cells were incubated in six-well plates until reaching 90% confluency, scratched with a pipette tip, and immediately photographed (0 h). Cells were incubated with or without compound k (2 μM), senexin A (5 μM), or pirfenidone (1 mM) for 1 h, then treated with TGF-β1 (10 ng/mL) and allowed to migrate into the wound area for 24 or 48 h, and photographed. Cell migration into the wound was quantified using ImageJ software; the solid line indicates time zero. Quantitative assessment of the mean number of cells in the denuded zone is expressed as the mean±SEM from three independent experiments. **p<0.01 compared to the control group; ##p<0.01 and ###p<0.001 compared to TGF-β1-treated group.
Cells were seeded in six-well plates and cultured to 90% confluency, at which time the cellular monolayer was wounded with a sterile 10-μL pipette tip and washed with culture medium to remove detached cells. Cells were incubated in the presence or absence of test compounds for 24 h and photographed. The wound closure percentages were subsequently determined using ImageJ software (National Institutes of Health, USA).

For assay [4], the system named is A549 cells. The assay can be described thus: Nuclear p-Smad3 T179 and RNA polymerase II pS2/S5 after TGF-β1, fractionation and western blot. It is filed as cell-based, human. The following applies: compound k 5 μM, senexin A 5 μM, pirfenidone 1 mM; TGF-β1 10 ng/ml 3 h. As for the experimental part: FIGS. 8A-8B show the inhibitory effects of cellular distributions of TGF-β1-induced p-Smad3 T179, RNA polymerase II pS2/S5, and Smad3 after treatment with compound k. Human alveolar epithelial A549 cells were incubated with compound k (5 μM), senexin A (5 μM), or pirfenidone (1 mM) for 1 h, followed by stimulation with TGF-β1 (10 ng/ml) for 3 h. Protein expressions in the cytoplasmic and nuclear fractions were subjected to a Western blot analysis using the indicated antibodies. α-Tubulin and histone H3 served as loading controls for the cytoplasmic and nuclear fractions, respectively. Results are shown as the mean±SEM of three independent experiments. **p<0.01 and ***p<0.001 compared to the control group; #p<0.05 and ##p<0.01 compared to the TGF-β1-treated group.
as §1
A Nuclear/Cytosol Fractionation Kit (Biovision, USA) was used to separate the cytosolic and nuclear fractions. […]

Chain of CDK8 (P49336 whole entry, looked up): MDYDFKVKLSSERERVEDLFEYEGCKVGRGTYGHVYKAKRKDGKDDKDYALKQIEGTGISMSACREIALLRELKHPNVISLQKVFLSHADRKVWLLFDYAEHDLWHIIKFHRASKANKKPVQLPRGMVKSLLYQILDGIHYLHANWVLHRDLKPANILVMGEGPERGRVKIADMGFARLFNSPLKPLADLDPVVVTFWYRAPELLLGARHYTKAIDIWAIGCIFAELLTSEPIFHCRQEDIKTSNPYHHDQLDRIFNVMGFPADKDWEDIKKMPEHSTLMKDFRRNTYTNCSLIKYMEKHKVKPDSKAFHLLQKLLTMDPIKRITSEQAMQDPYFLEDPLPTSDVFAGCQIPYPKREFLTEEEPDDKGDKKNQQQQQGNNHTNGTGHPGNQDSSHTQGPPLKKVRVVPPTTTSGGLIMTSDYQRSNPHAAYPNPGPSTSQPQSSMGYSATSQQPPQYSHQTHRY
Chain of CDK8 (P24863 whole entry partner, looked up): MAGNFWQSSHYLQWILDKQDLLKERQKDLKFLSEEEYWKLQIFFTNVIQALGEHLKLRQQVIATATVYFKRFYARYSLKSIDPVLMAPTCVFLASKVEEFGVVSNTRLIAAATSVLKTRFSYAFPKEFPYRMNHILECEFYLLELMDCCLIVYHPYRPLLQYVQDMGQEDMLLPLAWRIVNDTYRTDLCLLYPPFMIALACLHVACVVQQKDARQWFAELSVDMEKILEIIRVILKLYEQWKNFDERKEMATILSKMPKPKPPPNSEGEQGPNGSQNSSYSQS

Broadly, the inhibition is the drop in the measured response relative to a control, in per cent. What is called IC50 is the concentration needed to halve the response being measured. Take `CC(C)=C1C(=O)Nc2ccc(S(=O)(=O)Nc3ccc(C(=O)c4ccccc4)cc3)cc21` [Compound d, N-(4-Benzoylphenyl)-2-oxo-3-(propan-2-ylidene)indoline-5-sulfonamide]: at CDK8, the inhibition at 10 µM was 99% and the IC50 came to 380 nM.

For the molecule `CC(C)=C1C(=O)Nc2ccc(S(=O)(=O)Nc3ccc(Oc4ccc([N+](=O)[O-])cc4)cc3)cc21` [Compound a, N-(4-(4-Nitrophenoxy)phenyl)-2-oxo-3-(propan-2-ylidene)indoline-5-sulfonamide], the “TGF-β1-caused oxidative stress (MDA and Nox4 levels)” value in the assay with A549 cells [1] is “less-potent inhibition”. The “TGF-β1-triggered EMT protein expressions” value with A549 cells [2] was “no significant reduction”. For the same molecule, in the assay with A549 cells [3], the “inhibition of cell migration” value is recorded as “less inhibition”. Besides, the inhibition at 10 µM at CDK8 was determined as 48%.

Turning to `CNC(=O)c1cc(Oc2ccc(NS(=O)(=O)c3ccc4c(c3)C(=C(C)C)C(=O)N4)cc2)ccn1` [Compound j, N-Methyl-4-(4-((2-oxo-3-(propan-2-ylidene)indoline)-5-sulfonamido)phenoxy)picolinamide], at CDK8, the “CDK8 Inhibition percentage at 10 μM” value is listed as 85% and the IC50 is 1240 nM.

Turning to `CC(C)=C1C(=O)Nc2ccc(S(=O)(=O)Nc3cc(-c4ccc(C)cc4)[nH]n3)cc21` [Compound f, 2-Oxo-3-(propan-2-ylidene)-N-(5-(p-tolyl)-1H-pyrazol-3-yl) indoline-5-sulfonamide], on CDK8, the “CDK8 Inhibition percentage at 10 μM” value is 89% and the IC50 worked out at 798 nM.

As for `CC(C)=C1C(=O)Nc2ccc(S(=O)(=O)Nc3nnc(-c4ccccc4)s3)cc21` [Compound g, 2-Oxo-N-(5-Phenyl-1,3,4-thiadiazol-2-yl)-3-(propan-2-ylidene) indoline-5-sulfonamide], at CDK8, the “CDK8 Inhibition percentage at 10 μM” value turned out to be 99% and the IC50 is 338 nM.

`CC(C)=C1C(=O)Nc2ccc(S(=O)(=O)Nc3ccc(-n4ccnc4)cc3)cc21` [Compound i, N-(4-(1H-imidazol-1-yl)phenyl)-2-oxo-3-(propan-2-ylidene) indoline-5-sulfonamide]: at CDK8, the “CDK8 Inhibition percentage at 10 μM” value is recorded as 92% and the IC50 was determined as 945 nM.

As for `CC(C)=C1C(=O)Nc2ccc(S(=O)(=O)Nc3ccc(C)c(Nc4nccc(-c5cccnc5)n4)c3)cc21` [Compound m, N-(4-Methyl-3-((4-(pyridin-3-yl)pyrimidin-2-yl)amino)phenyl)-2-oxo-3-(propan-2-ylidene)indoline-5-sulfonamide], the inhibition at 10 µM at CDK8 came to 46%.

Turning to `CC(C)=C1C(=O)Nc2ccc(S(=O)(=O)Nc3cc(-c4ccccc4)[nH]n3)cc21` [Compound e, 2-Oxo-N-(5-phenyl-1H-pyrazol-3-yl)-3-(propan-2-ylidene)indoline-5-sulfonamide], on CDK8, the inhibition at 10 µM stood at 82% and the IC50 was 1640 nM.

With `CC(C)=C1C(=O)Nc2ccc(S(=O)(=O)Nc3ccc(Nc4ccccc4)cc3)cc21` [Compound b, 2-Oxo-N-(4-(phenylamino)phenyl)-3-(propan-2-ylidene)indoline-5-sulfonamide], in the assay with A549 cells [1], the “TGF-β1-caused oxidative stress (MDA and Nox4 levels)” value was “less-potent inhibition”. The “TGF-β1-triggered EMT protein expressions” value with A549 cells [2] is given as “slight reduction”. For the same molecule, in the assay with A549 cells [3], the “inhibition of cell migration” value is reported as “less inhibition”. Moreover, on CDK8, the inhibition at 10 µM came to 76% and the IC50 stood at 1570 nM.

For `Cc1ccc(=O)n(-c2ccccc2)c1` [pirfenidone, reference compound], the “TGF-β1-triggered EMT protein expressions” value in the assay with A549 cells [2] was “slight inhibition”. The “phosphorylation of p-Smad3 T179 and RNA Pol II pSer2/5” value with A549 cells [4] is recorded as “less-potent inhibition”.

On to `CC(=O)c1cccc(NS(=O)(=O)c2ccc3c(c2)C(=C(C)C)C(=O)N3)c1` [Reference Compound, N-(3-acetylphenyl)-2-oxo-3-(propan-2-ylidene)-indoline-5-sulfonamide, reference compound], for which, at CDK8, the inhibition at 10 µM is 87% and the IC50 turned out to be 1680 nM.

For `CC(C)=C1C(=O)Nc2ccc(S(=O)(=O)Nc3nc4ccccc4s3)cc21` [Compound h, N-(Benzo[d]thiazol-2-yl)-2-oxo-3-(propan-2-ylidene)indoline-5-sulfonamide], at CDK8, the inhibition at 10 µM was determined as 91% and the IC50 turned out to be 870 nM.

On to `CNC(=O)c1ccc(NS(=O)(=O)c2ccc3c(c2)C(=C(C)C)C(=O)N3)cc1F` [Compound l, 2-Fluoro-N-methyl-4-((2-oxo-3-(propan-2-ylidene)indoline)-5-sulfonamido)benzamide], for which, at CDK8, the “CDK8 Inhibition percentage at 10 μM” value amounted to 92% and the IC50 came to 652 nM.

For `CC(C)=C1C(=O)Nc2ccc(S(=O)(=O)Nc3ccc(NC(=O)c4ccccc4)cc3)cc21` [Compound c, N-(4-((2-Oxo-3-(propan-2-ylidene)indoline)-5-sulfonamido)phenyl)benzamide], the “CDK8 Inhibition percentage at 10 μM” value at CDK8 worked out at 33%.

Regarding `CC(C)=C1C(=O)Nc2ccc(S(=O)(=O)Nc3cccc4c(=O)[nH][nH]c(=O)c34)cc21` [Compound n, N-(1,4-Dioxo-1,2,3,4-tetrahydrophthalazin-5-yl)-2-oxo-3-(propan-2-ylidene)indoline-5-sulfonamide], on CDK8, the inhibition at 10 µM was 74% and the IC50 amounted to 3000 nM.
